Consider five molecules from publication PMC10451623 (Antioxidants, 2023).

No end group written: not given here. *: point of attachment. Biotin = O=C1N[C@H]2[C@H](CS[C@H]2CCCCC(=O)*)N1

Test [1] deals with T1, PPARα-LBD (Homo sapiens, UniProt Q07869).
T1 sequence (Q07869 200-468): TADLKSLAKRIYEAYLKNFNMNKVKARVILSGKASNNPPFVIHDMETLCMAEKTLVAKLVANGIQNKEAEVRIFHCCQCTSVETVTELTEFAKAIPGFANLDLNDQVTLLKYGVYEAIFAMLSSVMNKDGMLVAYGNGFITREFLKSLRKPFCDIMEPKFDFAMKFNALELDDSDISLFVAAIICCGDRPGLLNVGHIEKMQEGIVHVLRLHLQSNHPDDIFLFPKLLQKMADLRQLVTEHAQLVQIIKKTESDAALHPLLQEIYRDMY
The test is described as follows: Thermal stability assay using circular dichroism spectroscopy. Format: binding. Set-up: Human PPARα-LBD (amino acids 200–468); His tag (pET28a) (N); made in house; host or cells: Rosetta (DE3) pLysS (E. coli). The conditions noted are these: CD at 222 nm; 10 µM LBD; GW7647 at 10 µM. The procedure:
(§1) PPARα/δ/γ-LBD proteins (10 µM) were incubated with different concentrations of ligands in buffer C consisting of 20 mM Tris-HCl (pH 8.0), 150 mM NaCl, 1 mM Tris 2-carboxyethylphosphine (TCEP)-HCl, and 10% glycerol. The circular dichroism (CD) spectra were monitored within a 200–260 nm range at increasing temperatures from 30 °C to 70 °C (2 °C/min) using a J-1500 spectropolarimeter equipped with a PTC-510 thermal controller (JASCO, Tokyo, Japan). […] The ligand-induced increases in the Tm values were defined as ∆Tm.
(§2) Nuclear receptors, including PPARs, display an increased thermal stability upon ligand binding, which is detectable through CD spectroscopy.
(§3) Figure 3 Circular dichroism-based PPARα/δ/γ-LBD thermal stability assay. […] Data are presented as the mean ± SE of three or four (in parentheses) independent experiments. Differences vs. basal levels (with 0.1% DMSO) were statistically assessed by one-way ANOVA, followed by a Dunnett’s post hoc test: * p < 0.05, ** p < 0.01, and *** p < 0.001.
For orientation: CD spectra are sensitive to the conformation of chiral molecules.

Test [2] has as its target T1, PPARα-LBD. Also noted: Human PPARα-LBD (amino acids 200–468); made in house; host or cells: Rosetta (DE3) pLysS (E. coli); method as in PMID 33205029. The conditions noted are these: read-out: EC50 in the PGC1α recruitment activity (PPARα); cited from earlier work.
For test [3], the target named is T2, PPARδ-LBD (Homo sapiens, UniProt Q03181).
T2 sequence (Q03181 170-441): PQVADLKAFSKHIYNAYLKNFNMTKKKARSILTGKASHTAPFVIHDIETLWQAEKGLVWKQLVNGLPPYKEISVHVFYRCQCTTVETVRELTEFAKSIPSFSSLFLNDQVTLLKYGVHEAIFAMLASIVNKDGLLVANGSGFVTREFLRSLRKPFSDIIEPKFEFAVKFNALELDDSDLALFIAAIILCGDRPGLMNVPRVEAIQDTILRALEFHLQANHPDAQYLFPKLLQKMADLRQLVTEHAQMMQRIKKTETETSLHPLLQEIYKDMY
The experiment in a line: Thermal stability assay using circular dichroism spectroscopy. The format is binding. Set-up: PPARδ-LBD (amino acids 170–441); His tag (pET28a) (N); made in house; host or cells: Rosetta (DE3) pLysS (E. coli). The conditions noted are these: CD at 222 nm; 10 µM LBD; GW501516 at 50 µM. The procedure:
as §1, §2, §3

Test [4] addresses T3, human PPARα (Homo sapiens, UniProt Q07869).
T3 construct: expressed in transfected cells; host or cells: COS-7
T3 sequence (Q07869 239-466 limits assumed): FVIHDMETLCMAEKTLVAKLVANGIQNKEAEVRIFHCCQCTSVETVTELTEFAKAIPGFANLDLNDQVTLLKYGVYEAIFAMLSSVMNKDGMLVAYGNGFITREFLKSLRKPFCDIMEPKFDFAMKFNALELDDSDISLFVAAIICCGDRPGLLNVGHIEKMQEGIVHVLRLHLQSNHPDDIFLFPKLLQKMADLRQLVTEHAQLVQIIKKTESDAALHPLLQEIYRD
The experiment in a line: Transactivation assay (GAL4–hPPARα-LBD chimera, luciferase reporter, COS-7 cells). The conditions noted are these: 100% = 1 µM GW7647, read-out: Efficacy, PPARα transactivation (% of the maximal response). Format: cell-based. The procedure:
(§4) The pSG5-GAL–hPPARα/δ/γ plasmids express fusion proteins comprising the yeast transcription factor GAL4 DNA-binding domain and each of the human PPARα/δ/γ-LBDs. The MH100(UAS)×4-tk-Luc plasmid contains four copies of the MH100 GAL4 binding site and the Firefly luciferase gene. The cells were transfected with those plasmids and were treated with various PPAR ligands, and both Firefly and Renilla luciferase activities were measured using the Dual-Glo Luciferase Assay System (Promega, Madison, WI, USA) as described previously. […] GW1929 was purchased from Sigma-Aldrich (St. Louis, MO, USA).
(§5) For the undertaking of the comparison of the potency, efficacy, and selectivity of the five PPAR ligands (Figure 1A) against the PPAR subtypes, we evaluated their PPARα/δ/γ activation using three different methods: a cell-based transactivation assay, a coactivator recruitment assay, and a thermal stability assay, as we previously performed on three fibrates (namely, bezafibrate, fenofibric acid, and pemafibrate). The cell-based transactivation assay utilizing the Gal4–PPAR-LBD system is the most widely used method for the determination of PPAR activation by certain ligands, although their responses depend on the used cell types in which several coactivators with altered functions are differentially expressed.
(§6) Figure 1 LBD-mediated human PPARα/δ/γ transactivation by PPAR ligands. (A) Chemical structures of the five PPAR ligands used in this study. […] Data are presented as the mean ± standard error (SE) of three independent experiments with duplicate samples.
In general terms: Reporter assays use an easily measured gene product as a stand-in for the process of interest.

Test [5] has as its target T4, human PPARδ (Homo sapiens, UniProt Q03181).
T4 construct: expressed in transfected cells; host or cells: COS-7
T4 sequence (Q03181 211-439 limits assumed): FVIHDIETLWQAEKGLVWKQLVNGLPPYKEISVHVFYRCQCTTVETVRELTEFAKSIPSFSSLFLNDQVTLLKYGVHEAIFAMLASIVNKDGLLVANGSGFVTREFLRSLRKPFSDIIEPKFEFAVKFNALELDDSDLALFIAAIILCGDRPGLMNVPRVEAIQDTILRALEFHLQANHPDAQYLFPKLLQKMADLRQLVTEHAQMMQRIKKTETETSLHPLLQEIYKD
The experiment in a line: Transactivation assay (GAL4–hPPARδ-LBD chimera, luciferase reporter, COS-7 cells). The format is cell-based. The conditions noted are these: COS-7, read-out: Efficacy, PPARδ transactivation (% of the maximal response). How it is done: as §4, §5, §6

Test [6] concerns the target T5, PPARγ-LBD (Homo sapiens, UniProt P37231).
T5 sequence (P37231 203-477 isoform P37231-2): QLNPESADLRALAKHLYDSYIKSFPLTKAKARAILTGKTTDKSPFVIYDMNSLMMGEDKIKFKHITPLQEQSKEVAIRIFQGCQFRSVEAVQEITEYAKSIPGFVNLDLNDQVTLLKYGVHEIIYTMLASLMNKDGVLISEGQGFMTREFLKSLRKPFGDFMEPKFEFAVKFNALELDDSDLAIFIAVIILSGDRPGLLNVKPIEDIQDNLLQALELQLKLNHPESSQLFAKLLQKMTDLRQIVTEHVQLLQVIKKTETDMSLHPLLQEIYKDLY
The test is described as follows: Thermal stability assay using circular dichroism spectroscopy. The format is binding. Also noted: PPARγ-LBD (amino acids 203–477 in isoform 1); His tag (pET28a) (N); made in house; host or cells: Rosetta (DE3) pLysS (E. coli). The conditions noted are these: CD at 222 nm; 10 µM LBD; GW1929 at 10 µM. How it is done: as §1, §2, §3

Test [7] deals with T6, Human PPARα-LBD (amino acids 200–468), amino-terminal His-tagged (human, UniProt Q07869 200-468).
T6 construct: The His tag is detected by the anti-6xHis antibody in the TR-FRET assay; A delipidized preparation was used for some PPARα crystals; also called hPPARα-LBD; not shown: His tag, N-terminal, kept
T6 sequence (looked up): T1 sequence (Q07869 200-468)
The experiment in a line: FRET or BRET; LANCE Ultra TR-FRET; His-tagged LBD (400 nM solution, 9.5 µL) + biotin-PGC1α (4 µM, 5 µL) or biotin-SRC1 peptide (8 µM, 5 µL), Eu-W1024 anti-6×His antibody / ULight-Streptavidin, 2 h, room temperature; buffer A (10 mM HEPES-NaOH pH 7.4, 150 mM NaCl, 0.005% Tween 20, 0.1% BSA) for PPARα/γ-LBD, buffer B (50 mM HEPES-NaOH pH 7.4, 50 mM KCl, 1 mM EDTA, 0.5 mM DTT, 0.1% BSA) for PPARδ-LBD; ligand: reference …. The conditions noted are these: both partners purified. On the technique in general: Bioluminescence resonance energy transfer reports proximity on the nanometre scale.

As to `CC(C)(Sc1ccc(CCN(CCCCC2CCCCC2)C(=O)NC2CCCCC2)cc1)C(=O)O` [GW7647], in test [1], the “Effect on Tm of PPARα-LBD (in words)” value was “highly increased Tm values”.
The EC50 is the concentration at which the effect is half-maximal. `CC(C)(Oc1ccc(Cl)cc1)C(=O)O` [clofibric acid]: the EC50 in test [2] was 574 µM.
Turning to `CCc1ccc(CCOc2ccc(CC3SC(=O)NC3=O)cc2)nc1` (centres unmarked) [pioglitazone], in test [3], the “Effect on Tm of PPARδ-LBD (in words)” value is “no effects”. The figures for the Emax in test [4] and in test [5] were 25.2% and 0.518%, respectively. The “Effect on Tm of PPARα-LBD (in words)” value in test [1] was “no effects”.
On to GW1929, for which, in test [6], the “Effect on Tm of PPARγ-LBD (in words)” value is “highly increased Tm values”.

B1: biotin-labeled PPARγ coactivator 1α (PGC1α) coactivator peptide (amino acids 137–155) (peptide)
peptide: Biotin-EAEEPSLLKKLLLAPANTQ
notes: also called biotin-PGC1α; source: synthetic peptide (GenScript)
In the case of B1, the binding result in test [7] is given as “binds”.
